Data reported in US8173653B2, “Pyridiazinone derivatives for the treatment of tumours” (Merck Patent Gesellschaft MIT Beschraenkter Haftung, priority 2005, dated 2012).
pIC50: −log10 of the molar value.

biological target: T1, Met kinase (Homo sapiens, UniProt P08581); experiment: Met kinase inhibition (enzyme assay), flashplate method; type: biochemical
T1 construct: 6His (N); purchased Upstate 14-526; host or cells: insect cells (Sf21; S. frugiperda), baculovirus
Method: Flashplate Method (Met Kinase)
The test plates used are 96-well Flashplate® microtitre plates from Perkin Elmer (Cat. No. SMP200). The components of the kinase reaction described below are pipetted into the assay plate. The Met kinase and the substrate poly Ala-Glu-Lys-Tyr, (PAGLT, 6:2:5:1), are incubated for 3 hrs at room temperature with radioactively labelled ^33P-ATP in the presence and absence of test substances in a total volume of 100 μl. The reaction is terminated using 150 μl of a 60 mM EDTA solution. After incubation for a further 30 min at room temperature, the supernatants are filtered off with suction, and the wells are washed three times with 200 μl of 0.9% NaCl solution each time. The measurement of the bound radioactivity is carried out by means of a scintillation measuring instrument (Topcount NXT, Perkin-Elmer).
The full value used is the inhibitor-free kinase reaction. This should be approximately in the range 6000-9000 cpm. The pharmacological zero value used is staurosporin in a final concentration of 0.1 mM. The inhibitory values (IC50) are determined using the RS1_MTS program.
Kinase reaction conditions per well: • 30 μl of assay buffer • 10 μl of substance to be tested in assay buffer with 10% of DMSO • 10 μl of ATP (final concentration 1 μM cold, 0.35 μCi of ^33P-ATP) • 50 μl of Met kinase/substrate mixture in assay buffer; (10 ng of enzyme/well, 50 ng of pAGLT/well)
Assay Buffer: • 50 mM HEPES • 3 mM magnesium chloride • 3 μM sodium orthovanadate • 3 mM manganese(II) chloride • 1 mM dithiothreitol (DTT) • pH=7.5 (to be set using sodium hydroxide)

T1 sequence (P08581 974-1390 limits assumed): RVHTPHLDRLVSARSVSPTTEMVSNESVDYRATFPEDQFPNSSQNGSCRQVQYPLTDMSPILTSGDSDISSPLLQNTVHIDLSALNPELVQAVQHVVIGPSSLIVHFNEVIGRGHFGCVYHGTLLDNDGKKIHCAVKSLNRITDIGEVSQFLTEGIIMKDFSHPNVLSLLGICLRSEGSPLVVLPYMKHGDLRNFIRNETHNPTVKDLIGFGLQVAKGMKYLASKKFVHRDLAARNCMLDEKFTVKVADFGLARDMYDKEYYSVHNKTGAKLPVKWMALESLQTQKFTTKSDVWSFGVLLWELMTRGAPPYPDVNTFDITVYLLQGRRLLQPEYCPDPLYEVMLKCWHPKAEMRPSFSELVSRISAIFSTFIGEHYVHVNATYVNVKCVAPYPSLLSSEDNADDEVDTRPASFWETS

Structure (SMILES) | pIC50
CCOC(=O)Nc1cccc(Cn2nc(-c3ccc(Cl)cc3)ccc2=O)c1 [A3, ethyl {3-[3-(4-chlorophenyl)-6-oxo-6H-pyridazin-1-ylmethyl]phenyl}carbamate] | 6.00 to 8.00
COc1ccc(-c2ccc(=O)n(Cc3cccc(NC(C)=O)c3)n2)cc1OC [A4] | 6.00 to 8.00
CCOC(=O)Nc1cccc(Cn2nc(-c3ccc(F)cc3)ccc2=O)c1 [A5] | 6.00 to 8.00
CC(=O)Nc1cccc(Cn2nc(-c3ccc(F)cc3)ccc2=O)c1 [A7] | 6.00 to 8.00
CCOC(=O)Nc1cccc(Cn2nc(-c3ccccc3)ccc2=O)c1 [A9] | 6.00 to 8.00
CCOC(=O)Nc1cccc(Cn2nc(-c3cccc(Cl)c3)ccc2=O)c1 [A10] | 6.00 to 8.00
CN(C)CCCOC(=O)Nc1cccc(Cn2nc(-c3ccc(Cl)cc3)ccc2=O)c1 [A15, 3-dimethylaminopropyl {3-[3-(4-chlorophenyl)-6-oxo-6H-pyridazin-1-ylmethyl]phenyl}carbamate] | 6.00 to 8.00
CN(C)CCCOC(=O)Nc1cccc(Cn2nc(-c3cccc(Cl)c3)ccc2=O)c1 [A17] | 6.00 to 8.00
CCOC(=O)Nc1cccc(Cn2nc(-c3cccc(F)c3)ccc2=O)c1 [A38] | 6.00 to 8.00
CN(C)CCCOC(=O)Nc1cccc(Cn2nc(-c3cccc(C#N)c3)ccc2=O)c1 [A61, 3-Dimethylaminopropyl {3-[3-(3-cyanophenyl)-6-oxo-6H-pyridazin-1-ylmethyl]phenyl}carbamate] | 6.00 to 8.00
O=C(Nc1cccc(Cn2nc(-c3cccs3)ccc2=O)c1)OCCCN1CCOCC1 [A71, 3-Morpholin-4-ylpropyl [3-(6-oxo-3-thiophen-2-yl-6H-pyridazin-1-ylmethyl)phenyl]carbamate] | 6.00 to 8.00
O=C(Nc1cccc(Cn2nc(-c3cc(F)cc(F)c3)ccc2=O)c1)OCCCN1CCCC1 [A74, 3-Pyrrolidin-1-ylpropyl {3-[3-(3,5-difluorophenyl)-6-oxo-6H-pyridazin-1-ylmethyl]phenyl}carbamate] | 6.00 to 8.00
COCCCOC(=O)Nc1cccc(Cn2nc(-c3cc(F)cc(F)c3)ccc2=O)c1 [A75, 3-Methoxypropyl {3-[3-(3,5-difluorophenyl)-6-oxo-6H-pyridazin-1-ylmethyl]phenyl}carbamate] | 6.00 to 8.00
O=C(Nc1cccc(Cn2nc(-c3ccc(F)c(F)c3)ccc2=O)c1)OCCN1CCOCC1 [A81, 2-Morpholin-4-ylethyl {3-[3-(3,4-difluorophenyl)-6-oxo-6H-pyridazin-1-ylmethyl]phenyl}carbamate] | 6.00 to 8.00
N#Cc1cccc(-c2ccc(=O)n(Cc3cccc(NC(=O)OCCCN4CCOCC4)c3)n2)c1 [A88, 3-Morpholin-4-ylpropyl{3-[3-(3-cyanophenyl)-6-oxo-6H-pyridazin-1-ylmethyl]phenyl}carbamate] | 6.00 to 8.00
CN1CCN(CCOC(=O)Nc2cccc(Cn3nc(-c4ccc(F)c(F)c4)ccc3=O)c2)CC1 [A92, 2-(4-Methylpiperazin-1-yl)ethyl {3-[3-(3,4-difluorophenyl)-6-oxo-6H-pyridazin-1-ylmethyl]phenyl}carbamate] | 6.00 to 8.00
O=C(Nc1cccc(Cn2nc(-c3cc(F)c(F)c(F)c3)ccc2=O)c1)OCCN1CCOCC1 [A95, 2-Morpholin-4-ylethyl {3-[6-oxo-3-(3,4,5-trifluorophenyl)-6H-pyridazin-1-ylmethyl]phenyl}carbamate] | 6.00 to 8.00
CN1CCN(CCCOC(=O)Nc2cccc(Cn3nc(-c4cc(F)c(F)c(F)c4)ccc3=O)c2)CC1 [A101, 3-(4-Methylpiperazin-1-yl)propyl {3-[6-oxo-3-(3,4,5-trifluorophenyl)-6H-pyridazin-1-ylmethyl]phenyl}carbamate] | 6.00 to 8.00
CN1CCN(CCCCOC(=O)Nc2cccc(Cn3nc(-c4cc(F)cc(F)c4)ccc3=O)c2)CC1 [A103, 4-(4-Methylpiperazin-1-yl)butyl {3-[3-(3,5-difluorophenyl)-6-oxo-6H-pyridazin-1-ylmethyl]phenyl}carbamate] | 6.00 to 8.00
CN1CCCC1CCOC(=O)Nc1cccc(Cn2nc(-c3cc(F)cc(F)c3)ccc2=O)c1 (stereo not shown) [A105, 2-(1-Methylpyrrolidin-2-yl)ethyl {3-[3-(3,5-difluorophenyl)-6-oxo-6H-pyridazin-1-ylmethyl]phenyl}carbamate] | 6.00 to 8.00
CN1CCCC(COC(=O)Nc2cccc(Cn3nc(-c4cc(F)cc(F)c4)ccc3=O)c2)C1 (stereo not shown) [A106, 1-Methylpiperidin-3-ylmethyl {3-[3-(3,5-difluorophenyl)-6-oxo-6H-pyridazin-1-ylmethyl]phenyl}carbamate] | 6.00 to 8.00
CN1CCN(CCCOC(=O)Nc2cccc(Cn3nc(-c4cccc(C#N)c4)ccc3=O)c2)CC1 [A107, 3-(4-Methylpiperazin-1-yl)propyl {3-[3-(3-cyanophenyl)-6-oxo-6H-pyridazin-1-ylmethyl]phenyl}carbamate] | 6.00 to 8.00
CCN(CC)CCCOC(=O)Nc1cccc(Cn2nc(-c3cc(F)cc(F)c3)ccc2=O)c1 [A109, 3-Diethylaminopropyl {3-[3-(3,5-difluorophenyl)-6-oxo-6H-pyridazin-1-ylmethyl]phenyl}carbamate] | 6.00 to 8.00
CN(C)CCCCOC(=O)Nc1cccc(Cn2nc(-c3cc(F)cc(F)c3)ccc2=O)c1 [A110, 4-Dimethylaminobutyl {3-[3-(3,5-difluorophenyl)-6-oxo-6H-pyridazin-1-ylmethyl]phenyl}carbamate] | 6.00 to 8.00
CNCCCOC(=O)Nc1cccc(Cn2nc(-c3cc(F)cc(F)c3)ccc2=O)c1 [A142, 3-methylaminopropyl {3-[3-(3,5-difluorophenyl)-6-oxo-6H-pyridazin-1-ylmethyl]phenyl}carbamate] | 6.00 to 8.00
O=C(Nc1cccc(Cn2nc(-c3cc(F)cc(F)c3)ccc2=O)c1)OCCN1CCNCC1 [A143, 2-Piperazin-1-ylethyl {3-[3-(3,5-difluorophenyl)-6-oxo-6H-pyridazin-1-ylmethyl]phenyl}carbamate] | 6.00 to 8.00
O=C(Nc1cccc(Cn2nc(-c3cc(F)cc(F)c3)ccc2=O)c1)OCC1CCNCC1 [A156, Piperidin-4-ylmethyl {3-[3-(3,5-difluorophenyl)-6-oxo-6H-pyridazin-1-ylmethyl]phenyl}carbamate] | 6.00 to 8.00
O=c1[nH]c2ccc(Cn3nc(-c4cc(F)cc(F)c4)ccc3=O)cc2[nH]1 [A169, 5-[3-(3,5-Difluorophenyl)-6-oxo-6H-pyridazin-1-ylmethyl]-1,3-dihydrobenzimidazol-2-one] | 6.00 to 8.00

The next lines start with the values.

pIC50 | Structure (SMILES)
6.00 to 8.00 | CC(=O)Nc1cccc(Cn2nc(-c3cccc(O)c3)ccc2=O)c1 [A2, N-{3-[3-(3-hydroxyphenyl)-6-oxo-6H-pyridazin-1-ylmethyl]phenyl}acetamide]
6.00 to 8.00 | CCOC(=O)Nc1cccc(Cn2nc(-c3cccc(Br)c3)ccc2=O)c1 [A6]
6.00 to 8.00 | O=c1ccc(-c2ccc(F)cc2)nn1Cc1ccc2c(c1)OCO2 [A12]
6.00 to 8.00 | O=c1ccc(-c2ccc(F)cc2)nn1Cc1ccc2nsnc2c1 [A14]
6.00 to 8.00 | CCNC(=O)Nc1cccc(Cn2nc(-c3ccc(F)cc3)ccc2=O)c1 [A18, 1-ethyl-3-{3-[3-(4-fluorophenyl)-6-oxo-6H-pyridazin-1-ylmethyl]phenyl}urea]
6.00 to 8.00 | CCOC(=O)Nc1cccc(Cn2nc(-c3cccs3)ccc2=O)c1 [A19]
6.00 to 8.00 | CCNC(=O)Nc1cccc(Cn2nc(-c3cccc(Cl)c3)ccc2=O)c1 [A20]
6.00 to 8.00 | O=C(Nc1cccc(Cn2nc(-c3cc(F)c(F)c(F)c3)ccc2=O)c1)OCCCN1CCOCC1 [A78, 3-Morpholin-4-ylpropyl {3-[6-oxo-3-(3,4,5-trifluorophenyl)-6H-pyridazin-1-ylmethyl]phenyl}carbamate]
6.00 to 8.00 | O=c1[nH]c2ccc(Cn3nc(-c4cccc(F)c4)ccc3=O)cc2[nH]1 [A127, 5-[3-(3-fluorophenyl)-6-oxo-6H-pyridazin-1-ylmethyl]-1,3-dihydrobenzimidazol-2-one]
6.00 to 8.00 | O=C(Nc1cccc(Cn2nc(-c3cc(F)cc(F)c3)ccc2=O)c1)OCCCN1CCNCC1 [A145, 3-Piperazin-1-ylpropyl {3-[3-(3,5-difluorophenyl)-6-oxo-6H-pyridazin-1-ylmethyl]phenyl}carbamate]
6.00 to 8.00 | CNCCCCOC(=O)Nc1cccc(Cn2nc(-c3cc(F)cc(F)c3)ccc2=O)c1 [A155, 4-Methylaminobutyl {3-[3-(3,5-difluorophenyl)-6-oxo-6H-pyridazin-1-ylmethyl]phenyl}carbamate]
6.00 to 8.00 | O=c1ccc(-c2cc(F)cc(F)c2)nn1Cc1ccc2[nH]ncc2c1 [A161, 6-(3,5-difluorophenyl)-2-(1H-indazol-5-ylmethyl)-2H-pyridazin-3-one]
